{
  "source": "patent US8653023B1",
  "about": "“Dual beneficial effect of dopamine enhancing and neuroprotective actions of PKC delta inhibitors for treatment of Parkinson's disease” (Iowa State University Research Foundation, Inc., priority 2006, dated 2014)",
  "key": {"3T3 cells": {"system": "3T3 cells", "conditions": "zinc deficient medium; cited from earlier work"}, "[1]": {"system": "tyrosine hydroxylase (TH)", "assay": "TH-ser40 phosphorylation in primary mesencephalic neurons (immunofluorescence)", "type": "cell-based, mouse", "conditions": "PKCδ (+/+) primary neuronal cultures, 3 μM rottlerin for 3 hr", "method": "PC12 and N27 cells were cultured as described earlier (Anantharam et al., 2002; Kaul et al., 2003). Briefly, cells were grown in RPMI 1640 medium containing 10% fetal bovine serum, 2 mM L-glutamine, 50 units of penicillin, and 50 μg/ml streptomycin. Cells were maintained in a humidified atmosphere of 5% CO2 at 37° C. N27 cells were differentiated with 2 mM dibutyryl cAMP for 3-5 days and then used for experiments described below. Primary mesencephalic neuronal cultures were prepared from the ventral mesencephalon of gestational 16-18-day-old mice embryos as described previously (Yang et al., 2004). Mesencephalic tissues were dissected and maintained in ice-cold Ca^2+-free HESS and then dissociated in HBSS solution containing trypsin-EDTA (0.25%) for 20 min at 37° C. The dissociated cells were then plated at equal density (0.5×10^6 cells) in 30-mm-diameter tissue culture wells precoated with poly-L-lysine (1 mg/ml). […]\nPlasmid pPKCδ^K376R-V5 encodes the loss of function PKCδ-V5 epitope tagged mutant protein; K376R refers to the mutation of the lysine residue at position 376 to arginine in the catalytic site resulting in inactivation of the kinase. […] Transfection efficiency was >75% as determined by immunostaining of V5-expression. […]"}, "dopaminergic N27 cells": {"system": "dopaminergic N27 cells", "conditions": "cited from earlier work"}, "[2]": {"system": "tyrosine hydroxylase (TH)", "assay": "TH phosphorylation in PC12 cells (immunoblot, immunofluorescence)", "type": "cell-based", "conditions": "3 μM rottlerin for 3 hr", "method": "(§1) PC12 cells, differentiated N27 dopaminergic cells and primary mesencephalic neurons were exposed to 1-10 μM rottlerin for the duration of the experiment. DMSO (0.01%) was used as vehicle control. PKCδ-DN- and Lac Z-expressing N27 cells were only treated with 0.01% DMSO. […] Untreated or vehicle treated cells were used as control samples.\nCell and brain lysates containing equal amounts of protein were loaded in each lane and separated on a 10-12% SDS-PAGE gel as described previously (Kaul et al., 2003). After the separation, proteins were transferred to nitrocellulose membrane, and nonspecific binding sites were blocked by treating with 5% nonfat dry milk powder. The membranes were then treated with primary antibodies directed against PKCδ (rabbit polyclonal or mouse monoclonal, 1:2000 dilution), TH (rabbit polyclonal or mouse monoclonal, 1:1000), phospho TH-ser40 (rabbit polyclonal, 1:1000), phospho TH-ser31 TH (rabbit polyclonal, 1:1000), or PP2A (mouse monoclonal, 1:1000). The primary antibody treatments were followed by treatment with secondary HRP-conjugated anti-rabbit or anti-mouse IgG (1:2000) for 1 hr at RT. Secondary antibody-bound proteins were detected using Amersham's ECL chemiluminescence kit. To confirm equal protein loading, blots were reprobed with a β-actin antibody (1:5000 dilution). Western blot images were captured with a Kodak 2000 MM imaging system and data were analyzed using 1D Kodak imaging analysis software.\nImmunostaining of PKCδ, TH, Ser40 P-TH and Ser31 P-TH was performed in PC12, N27 and primary mesencephalic neurons. Cells were grown on poly-L-Lysine-coated glass cover slips. After treatment, the cells were fixed with 4% paraformaldehyde and processed for immunohistochemical staining. First, non-specific sites were blocked with 5% normal goat serum containing 0.4% BSA and 0.2% Triton-X 100 in PBS for 20 min. Cells were then incubated with antibodies directed against PKCδ (1:500 dilution), TH (1:500 dilution), and P-THSer40 (1:500 dilution) overnight at 4° C. followed by incubation with either Alexa 488-conjugated (green, 1:1000) or Cy3-conjugated (red, 1:1000) secondary antibody for 1 hr at RT. Secondary antibody treatments were followed by incubation with Hoechst 33342 (10 μg/ml) for 3 min at room temperature to stain the nucleus. Then the coverslips containing stained cells were washed with PBS, mounted on a slide, and viewed under a Nikon inverted fluorescence microscope (Model TE-2000U); images were captured with a SPOT digital camera (Diagnostic Instruments, Sterling Heights, Mich.)."}, "[3]": {"system": "tyrosine hydroxylase (TH)", "assay": "TH activity (DOPA levels after NSD-1015) in PC12 cells", "type": "cell-based", "conditions": "2 mM NSD-1015", "method": "as §1"}},
  "data": [
    {"compound": "CC(=O)c1c(O)c(C)c(O)c(Cc2c(O)c3c(c(C(=O)/C=C/c4ccccc4)c2O)OC(C)(C)C=C3)c1O", "note": "[rottlerin]", "values": [
      {"measurement": "cell number", "setting": "3T3 cells", "value": "restored"},
      {"measurement": "proteolysis of PKC-delta, activated caspase-3", "setting": "3T3 cells", "value": "reduced or eliminated"},
      {"measurement": "TH-ser40 fluorescent intensity, increase", "setting": "[1]", "value": 4, "unit": "fold"},
      {"measurement": "H2O2 and MPP+-induced apoptotic cell death (genistein: also PKCδ cleavage, kinase activation)", "setting": "dopaminergic N27 cells", "value": "dramatically inhibited"},
      {"measurement": "TH-ser40 phosphorylation, densitometry of 60 kDa band, increase versus vehicle", "setting": "[2]", "value": 3, "unit": "fold"},
      {"measurement": "THser31 phosphorylation level", "setting": "[2]", "value": "unaltered"},
      {"measurement": "level of total TH", "setting": "[2]", "value": "unaltered"},
      {"measurement": "increase in TH-ser40 stained cells compared to DMSO-treated cells", "setting": "[2]; immunofluorescence cell count", "value": 333, "unit": "%"},
      {"measurement": "TH activity", "setting": "[3]; 1 μM rottlerin 3 hr", "value": "2091.09±80.17", "unit": "pg DOPA/10^6 cells/hr"},
      {"measurement": "TH activity", "setting": "[3]; 3 μM rottlerin 3 hr", "value": "3045±75.31", "unit": "pg DOPA/10^6 cells/hr"}
    ]}
  ]
}
